We go through one compound from patent US20240307339A1, “NOVEL COMPOUNDS FOR THE TREATMENT AND PREVENTION OF NEUROLOGICAL COMPLICATIONS OF VIRAL INFECTIONS” (Sunregen Healthcare AG, priority 2021, published 2024).

Test [1] deals with NMU-induced photoreceptor degeneration (retina). Kind of test: murine model of N-nitroso-N-methylurea (NMU) photoreceptor degeneration. It is filed as in vivo, C57BL/6J mice. As to conditions: for outer nuclear layer (ONL) area under the curve (AUC -1.75 to +1.75 μm): H&E histology; for number of rows of photoreceptor nuclei: mid-peripheral region. As to the method: Eighteen 8-12-week-old female C57BL/6J mice were randomized into three groups: 1) NMU+vehicle; 2) NMU+Tripentadecanoin 20 mg/kg; 3) NMU+Tripentadecanoin 50 mg/kg. NMU at a dose of 50 mg/kg was injected i.p. to all mice; Tripentadecanoin (or vehicle) was administered daily via oral gavage starting 3 days before NMU and continuing until 7 days after NMU challenge. Retina were imaged by spectral domain optical coherence tomography (OCT) 5 days before exposing to NMU and 7 days after NMU. All eyes were collected and processed for histological hematoxylin and eosin (H&E) staining. The thicknesses of photoreceptors were measured from different locations on OCT images and H&E slides, respectively. Photoreceptor thickness on H&E slides were quantified using automated Leica software (Leica, Heerbrugg), operated by a single masked observer. Results were expressed as the outer nuclear layer (ONL) area under the curve (AUC −1.75 to +1.75 μm) and number of rows of photoreceptor nuclei.

In test [2] the test system is Mouse hepatitis virus (MHV). Kind of test: mouse model of coronavirus infection (MHV infected mice). It is filed as in vivo, C57BL/6J male mice. The note with it: vs vehicle; for clinical score / clinical severity of virus induced neuropathology: 50 mg/kg, treatment started 3 days after virus infection till Day 21, P<0.05 on days 9, 10 or 14. As to the method: Tripentadecanoin was tested in a mouse model of coronavirus infection. The objective of this study was to investigate tripentadecanoin's therapeutic effects in MHV infected mice. Mouse hepatitis virus (MHV) causes acute infections of the murine liver and lungs and persistent infections of the gastrointestinal tract and central nervous system (CNS). […] This virus was named JHM virus (JHMV) and subsequently shown to be a coronavirus, related to other MHV strains (Bergmann, C., Lane, T. & Stohlman, S. Coronavirus infection of the central nervous system: host-virus stand-off. Nat Rev Microbiol 2006; 4:121-132.). JMHV is now broadly used to study virus-induced neurological diseases, particularly demyelination. It is considered to be a suitable model for coronavirus-induced neurological complication. CNS infection with MHV provides an animal model for acute viral-induced encephalomyelitis and the human demyelinating disease, multiple sclerosis. MHV-induced demyelinating disease is typified by mice, which control viral replication, but fail to fully clear virus. Acute infection induces CNS inflammation and initiates the demyelinating process. Animals that fail to control virus replication in a sufficiently rapid manner succumb to encephalomyelitis within 5-10 days. Survivors of acute infection typically eliminate infectious virus within two weeks. However, these animals still fail to achieve sterile immunity as evidenced by the persisting viral antigen (Ag) and RNA within the CNS. MHV persistence is associated with chronic CNS inflammation and ongoing primary demyelination.
20 C57BL/6J male mice of at 5 weeks of age were randomized into 2 groups of vehicle control or tripentadecanoin 50 mg/kg. Tripentadecanoin or vehicle control treatment was started 3 days after virus infection for a total of 19 days till Day 21. Clinical score of MHV infected mice was rated as: 0—asymptomatic; 1—limp tail; 2—wobbly gait with righting difficulty; 3—hind limb weakness and extreme righting difficulty; 4—hind limb paralysis; 5—moribund.

The subject of test [3] is YHB1 (yeast homologue of neuroglobin) mRNA. Kind of test: RNAseq of yeast cells treated with tripentadecanoin. It is filed as cell-based, Saccharomyces cerevisiae. As to the method: (§1) Potential targets of the compound of formula (I) were identified by using RNAseq. The yeast cells (Saccharomyces cerevisiae) were treated with tripentadecanoin (30 μM) for 5 hours and the mRNA abundance of all genes in cells that were treated with the compound or vehicle only for 5 hours was quantitatively monitored. Samples in triplicate were processed by the company Genewiz. […] Among these hits is Yhb1, a flavohemoglobin that plays a role in nitrosative stress response (FIG. 4A). Following the results from the RNAseq survey, PH084, YHB1 or VTC4 were knocked out and the proportion of old cells with an Hsp104-GFP focus was measured, as before. While pho84Δ cells were similar to wild type cells, much more vtc4Δ and yhb1Δ mutant cells contained an age-induced deposit (FIG. 4A).

Test [4] deals with Hsp104-GFP age-induced protein deposit. Kind of test: Hsp104-GFP age-induced protein deposit in old yeast cells (replicative ageing). It is filed as cell-based, Saccharomyces cerevisiae. As to conditions: for proportion of cells with an Hsp104-GFP focus / proportion of cells with an Hsp104-GFP focus decreased: 30 μM.
Source text: While yeast populations can be propagated ad libitum, the yeast mother cell has a finite lifespan and can only produce a certain amount of daughter cells, typically 25 for laboratory backgrounds. Mortality rate increases with the number of daughter cells produced, therefore this phenomenon is termed replicative ageing. In old yeast cells, age-induced protein deposits recruit a specific set of chaperones and co-chaperones.
Hsp104 expressed endogenously as a fusion to the green fluorescent protein tag (Hsp104-GFP) forms a focus in old cells. The presence (percentage of cells with an aggregate at a certain age), number (number of foci per cell) and size (fluorescent brightness) can be assessed on hundreds of cells and thus, this gives a good model for assessing the biology of age induced aggregates.
To test if tripentadecanoin is active in yeast, cells were treated with different concentrations of the purified compound (1 μM, 10 μM and 30 μM) as well as an extract (10 μg/ml) of the plant it is derived from (Ophioglossum thermale). These cells were let to age in the presence of the compound and after 10-11 generations, cells were imaged to count their age and assess whether they contained a Hsp104-GFP age-induced protein deposit or not (FIG. 3A).
as §1

Another test deals with neuroglobin mRNA. Kind of test: Expression of neuroglobin in mouse primary cortical neurons (qPCR). It is filed as cell-based, C57BL/6J mouse. Here is the method:
Healthy neurons preparation: primary mouse cortical neurons from embryonic day 16-17 were prepared from C57BL/6J mouse foetuses, resulting in 95-97% of neurons and 3-5% astrocytes. At DIV 5/6, mouse primary cortical neurons was treated for 3 h (T3) or 24 h (T24) with vehicle (ethanol) or increasing concentrations of tripentadecanoin (100 or 1000 nM). q PCRmethods used to amplify the mRNA of neuroglobin.
The amount and quality of RNA were evaluated using capillary electrophoresis. The complementary DNA (cDNA) was synthesized by reverse transcription of total RNA in presence of oligo(dT) and “Transcriptor reverse transcriptase” from Roche. The cDNA quantities were then adjusted before the PCRstep. The qPCRreactions were performed using the Licht Cycler system from Roche according to supplier instructions. In this experiment, Rps28 (Ribosomal protein S28) was used as a reference marker (also referred to as housekeeping gene).
The reaction mix (10 μL final) was prepared as follows: • 2.5 μL cDNA • Primers and TaqMan probe • Reagent mix containing taq DNA polymerase and MgCl2.
The following primers were used in this experiment: […]
On the technique in general: In qPCR the cycle at which signal appears reflects the starting amount.

In the case of `CCCCCCCCCCCCCCC(=O)OCC(COC(=O)CCCCCCCCCCCCCC)OC(=O)CCCCCCCCCCCCCC` [tripentadecanoin], the “outer nuclear layer (ONL) area under the curve (AUC -1.75 to +1.75 μm)” value is given as 73.58±14.45 in test [1] (20 mg/kg daily oral gavage, p<0.01 vs vehicle) and 83.08±19.05 in test [1] (50 mg/kg daily oral gavage, p<0.001 vs vehicle). The “number of rows of photoreceptor nuclei” value in test [1] (20 mg/kg, p<0.01 vs vehicle) is 6.4±1.2; in test [1] (50 mg/kg, p<0.001 vs vehicle), 7.0±1.7. For the same compound, the “neuroretinal thickness (OCT)” value in test [1] (50 mg/kg, peripheral (p<0.05), mid-peripheral (p<0.05) and central retina (p<0.01) vs vehicle) is “significantly increased”. Further, the “thickness of photoreceptor layers (in vivo OCT images)” value in test [1] (OCT 7 days after NMU, vs control) is “increased thickness of photoreceptor layers”. In addition, the entries for the “clinical score / clinical severity of virus induced neuropathology” value in test [2] and in test [2] (listed as compound of the formula (I)) were “reducing the clinical severity of virus induced neuropathology” and “improved clinical score”, respectively. In test [2] (mouse model of coronavirus infection), the “weight loss of animals” value is “reduced weight loss of animals”. For the same compound, in test [3] (30 μM, 5 hours, RNAseq, triplicate), the “mRNAs significantly differentially expressed vs vehicle” value stood at 157. For the same compound, the “expression of YHB1” value in test [3] (yeast cells treated with tripentadecanoin) is recorded as “significantly increased”. Further, the “cells containing a Hsp104-GFP age-induced protein deposit (focus)” value in test [4] (1 μM, 10 μM and 30 μM, after 10-11 generations, vs vehicle 0.3% ethanol) was “less likely to harbor a Hsp104-GFP focus”. The “proportion of cells with an Hsp104-GFP focus” value in test [4] (pho84Δ cells) and in test [4] (wild type cells) was “decreased” in each case. Moreover, the “proportion of cells with an Hsp104-GFP focus decreased” value in test [4] (vtc4Δ mutant cells) and in test [4] (yhb1Δ mutant cells) was “this was not the case” throughout. Also, the “aggregation of HSP-104 (GFP-HSP104 loci)” value in test [4] (yeast cells, summary statement) was “greatly reduced”. For the same compound, in the test on neuroglobin mRNA (1000 nM, 3 hours, p<0.001), the “expression of neuroglobin vs vehicle control” value is “significant increased expression of neuroglobin”. Moreover, in the test on neuroglobin mRNA (mouse neurons, Example 4), the “increase in the expression level of neuroglobin” value is given as “approximately six-fold”.
